Test results reported in patent publication US8178579B2, “Dioxanes and uses thereof” (President and Fellows of Harvard College, priority 2001, dated 2012).
“Also recorded” adds a separate entry of the source.

Legend:
A549 cells = test: mitotic abnormalities by immunofluorescence; type: cell-based, human; conditions: 18 h or 24 h treatment, TSA 10 μM in FIG. 42C
Method: Detection of acetylated α-tubulin and acetylated histones by immunofluorescence was performed as described in Example 6 above. For determining microtubule stability, A549 cells were treated as indicated, fixed in glutaraldehyde, and stained for acetylated α-tubulin and total α-tubulin in antibody dilution buffer (ADB, Tris-buffered saline (TBS), 0.15 M NaCl, 0.02 M Tris-Cl, pH 7.4, with 2% bovine serum albumin and 0.1% Triton-X 100). For cold-depolymerization, cells were incubated at 4° C. or 37° C. for an additional 90 minutes before fixation. For calcium depolymerization, cells were incubated at 37° C. for 10 minutes in a microtubule-stabilizing buffer (0.2% NP-40, 5 mM MgCl2, 2 mM EGTA, 2 M glycerol, 100 mM PIPES, pH 6.8) with and without the addition of CaCl2 (2 mM) before glutaraldehyde fixation. For co-localization experiments, biotubacin (50 μM) treated A549 cells were fixed in 3.7% formaldehyde in TBS and processed as for detecting acetylated α-tubulin (See Example 6 above) with biotubacin detected using streptavidin-TR (1:500). HDAC6 was detected using a rabbit polyclonal antibody (1:250-1:750; C.M.G., unpublished data) under the conditions used to detect acetylated α-tubulin (See Example 6 above). Filamentous actin in HT-1080 cells was detected using TR-conjugated phalloidin (1 μg/mL), and depolymerized actin using FITC-conjugated deoxyribonuclease (10 μg/mL), following fixation in 3.7% formaldehyde in TBS. p58 (1:100) in NIH-3T3 cells was detected after fixation in 3.7% formaldehyde in TBS. Images for these experiments were collected on a Zeiss LSM510 confocal scanning laser microscope at the appropriate wavelengths using the accompanying software and processed with Adobe Photoshop. Deconvoluted serial images of TSA and DMSO treated A549 cells were obtained by taking sections (8μ) on a Zeiss Axioskop 2 microscope using an AxioCam camera and the accompanying software. Rat hippocampal neuronal cultures were fixed at room temperature for 15 min in phosphate-buffered saline (PBS) containing 4% paraformaldehyde. […]

HDAC6F H611A mutant = biological target: T1, HDAC6F H611A mutant (Homo sapiens, UniProt Q9UBN7, H611A); test: in vitro deacetylase assay with [3H]-histones, HDAC6F H611A mutant; type: biochemical; conditions: [3H]-labeled histones, n=3
T1 construct: made in house; host or cells: TAg Jurkat cells, transient transfection, anti-FLAG M2 immunoprecipitation
T1 sequence (Q9UBN7 whole entry H611A): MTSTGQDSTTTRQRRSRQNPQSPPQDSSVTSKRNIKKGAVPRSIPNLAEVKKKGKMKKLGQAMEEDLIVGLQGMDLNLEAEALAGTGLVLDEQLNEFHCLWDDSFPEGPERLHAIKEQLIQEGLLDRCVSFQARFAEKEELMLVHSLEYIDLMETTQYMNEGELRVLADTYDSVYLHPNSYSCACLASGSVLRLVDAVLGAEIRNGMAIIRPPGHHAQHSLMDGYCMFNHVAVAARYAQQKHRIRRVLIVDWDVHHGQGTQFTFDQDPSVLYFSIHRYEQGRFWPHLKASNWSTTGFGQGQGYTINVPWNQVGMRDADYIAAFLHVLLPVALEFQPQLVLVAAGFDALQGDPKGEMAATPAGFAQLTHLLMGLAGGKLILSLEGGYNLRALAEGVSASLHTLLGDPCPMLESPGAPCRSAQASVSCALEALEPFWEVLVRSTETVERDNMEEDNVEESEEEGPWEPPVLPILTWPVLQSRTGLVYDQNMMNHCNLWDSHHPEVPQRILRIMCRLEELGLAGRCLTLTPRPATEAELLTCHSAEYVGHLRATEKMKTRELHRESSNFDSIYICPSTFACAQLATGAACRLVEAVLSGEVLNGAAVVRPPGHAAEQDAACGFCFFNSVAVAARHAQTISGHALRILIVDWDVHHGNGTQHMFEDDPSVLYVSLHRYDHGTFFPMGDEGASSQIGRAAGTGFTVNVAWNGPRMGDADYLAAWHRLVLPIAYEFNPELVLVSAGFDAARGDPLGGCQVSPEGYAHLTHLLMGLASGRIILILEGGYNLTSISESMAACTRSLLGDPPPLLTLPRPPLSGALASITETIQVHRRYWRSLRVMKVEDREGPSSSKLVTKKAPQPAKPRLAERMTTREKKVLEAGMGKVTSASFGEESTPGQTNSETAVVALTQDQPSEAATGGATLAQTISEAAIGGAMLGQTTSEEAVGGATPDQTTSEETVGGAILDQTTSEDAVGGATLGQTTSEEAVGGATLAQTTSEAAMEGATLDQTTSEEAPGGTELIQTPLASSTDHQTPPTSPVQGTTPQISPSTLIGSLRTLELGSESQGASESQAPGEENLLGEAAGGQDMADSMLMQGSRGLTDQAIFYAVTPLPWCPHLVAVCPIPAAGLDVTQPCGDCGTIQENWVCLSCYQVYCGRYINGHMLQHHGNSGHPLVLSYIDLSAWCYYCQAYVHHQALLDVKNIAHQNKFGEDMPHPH
Method: FLAG-tagged HDAC pBJ5 constructs were transiently transfected by electroporation with 5 μg DNA for expression of recombinant proteins (C. M. Grozinger, C. A. Hassig and S. L. Schreiber, Proc. Natl. Acad. Sci. USA, 27, 4868 (1999); and C. A. Hassig et al., Proc. Natl. Acad. Sci. USA 95, 3519 (1998)]. Cells were mock transfected without DNA or with a non-FLAG-tagged pCMV-LacZ construct as a negative control. Forty-eight hours after transfection recombinant proteins were immunoprecipitated using anti-FLAG M2 agarose affinity gel beads as described [C. A. Hassig et al., Proc. Natl. Acad. Sci. USA 95, 3519 (1998)]. Western blotting using anti-acetylated α-tubulin (1:1000) anti-tubulin (1:1000), and anti-acetylated (K9, K14) histone H3 (1:1000) antibodies was performed using standard methods (K. M. Koeller et al., Chemistry & Biology, 10 (5) (2003) pp. 397-410). […]
[^3H]Acetate-incorporated histones were isolated from butyrate-treated HeLa cells as described [J. Taunton, C. […] Immunoprecipitates were incubated with acetylated histones and HDAC activity determined by scintillation counting as described [J. Taunton, C. […] After centrifugation, the supernatant (diluted to 0.4 μg tubulin) and α-FLAG M2 agarose affinity gel beads were analyzed by western blotting with an anti-FLAG M2 antibody (1:1750) to ensure equal protein levels.

Row | SMILES | mitotic abnormalities (A549 cells) | inhibition of HDAC activity of HDAC6F H611A mutant (HDAC6F H611A mutant)
1 | O=C(CCCCCCC(=O)Nc1ccc([C@@H]2OC(c3ccc(CO)cc3)C[C@H](CSc3nc(-c4ccccc4)c(-c4ccccc4)o3)O2)cc1)NO (stereo partly shown) [tubacin] | did not increase the frequency of mitotic abnormalities; also recorded: had neither an effect on the number of mitotic cells nor spindle morphology | not inhibited by either TSA or tubacin
2 | CC(/C=C/C(=O)NO)=C\[C@@H](C)C(=O)c1ccc(N(C)C)cc1 [TSA, trichostatin A, reference compound] | Mitotic abnormalities in A549 cells induced by TSA; also recorded: caused a significant number of abnormal mitotic cells | not inhibited by either TSA or tubacin
